In US8592446B2, “[1,10]-phenanthroline derivatives for the treatment of neurodegenerative or haematological diseases” (Noscira, S.A., priority 2007, dated 2013):
Read-outs that look alike come from different tables or passages of the source.

What was measured:
[1] = Chelating ability with Fe(II) (absorbance spectra); format: physicochemical
Procedure: FIG. 2 is an absorbance spectrum of the complex Fe(II)-Compound 4. Concentration of Fe(II) and Compound 4, 200 μM, PBS 10 mM, pH 8.
FIG. 3 is an absorbance spectrum of the complex Fe(II)-Compound 7. Concentration of Fe(II) and Compound 7 , 400 μM, PBS 10 mM, pH 8.
FIG. 4 is an absorbance spectrum of the complex Fe(II)-Compound 8. Concentration of Fe(II) and Compound 8, 200 μM, PBS 10 mM, pH 7.4.
FIG. 5 is an absorbance spectrum of the complex Fe(II)-Compound 10. Concentration of Fe(II) and Compound 10, 100 μM, PBS 10 mM, pH 7.4.
(§1) Therefore, it may be observed that the compounds of formula (I) have a high affinity to Fe (II) in comparison to the rest of metalic ions tested.

[2] = Chelating ability with Fe (III) (absorbance spectra); format: physicochemical; conditions: PBS 10 mM, pH 7.4, ligand and Fe(III) 200 μM, FIG. 1
Procedure: FIG. 1 is an absorbance spectrum of compounds 4, 7, 8 and 10 in absence and presence of Fe(III). PBS 10 mM, pH 7.4. Concentration of ligand and Fe(III), 200 μM.
Only one line is observed, as the spectra are overlapping (see FIG. 1).

[3] = Chelating ability with Cu (II) (absorbance spectra); format: physicochemical; conditions: pH 7.4, expecting time 2 h
Procedure: FIG. 6 depicts the absorbance spectra of the mixture of Cu (II) and each of the quelating ligands (Compound 4, Compound 7, Compound 8). Concentration of Cu(II) and all compounds 200 μM, PBS 10 mM, pH 7.4.
FIG. 7 is the absorbance spectra of the complex Cu(II)-Compound 10. Concentration 200 μM, PBS 10 mM, pH 7.4.
as §1

[4] = Screening pharmacokinetic study, plasma and brain (LC-MS/MS); format: in vivo, mice (C57BL6/J); conditions: mice; for Kp / bioavailability / Tmax / AUC / Cmax / half-life: male, C57BL6/J, mouse; for Kp: brain and plasma
Procedure: The objective of this study is to evaluate the oral bioavailability and the plasmatic and brain pharmacokinetic parameters after oral and intravenous administration, thus determining if compounds of formula (I) are able to cross the blood brain barrier (BBB). […] Each compound was solved in appropriate excipients. In the case of oral administration, compound was administered by means of an oral gavage coupled to a syringe. In the intravenous administration animals, the test item was administered by a single injection with a syringe coupled to a 30 G needle.
Two animals were sacrificed (according to internal SOPs and following animal handling and welfare guidelines) at each selected extraction times (i.e. 30 min, 1 h, 2 h, 4 h, 6 h, 8 h and 24 hours after administration), and from each animal, both brain and blood samples were obtained. Plasma was extracted by centrifugation of the blood samples. Each sample time represents two male mice from which samples were obtained.
The method for the analysis of plasma and brain samples involved isolation of the analyte from the biological matrix by protein precipitation or solid-phase extraction followed by analysis using LC-MS/MS. Limits of quantification for these compounds were in the order of 2-10 ng/mL. The software Winnonlin professional version 5.2 was used for the calculation of pharmacokinetic parameters.
In the following tables, the abbreviations have the meaning indicated below: • AUC=Area under the curve • T1/2=Half-life • Tmax=the time after administration of a drug when the maximum plasma concentration is reached; when the rate of absorption equals the rate of elimination • Cmax=maximum plasma concentration of the drug • V. Adm. and Vol. Adm.=volume of administration

[5] = system: SH-SY5Y human neuroblastoma cells; test: Protection against 6-OHDA-induced cell death, condition A (10% foetal bovine serum); format: cell-based; conditions: preincubated 2 hours, 6-OHDA 75 μM 16 hours, read-out: Protect. 6-OHDA (+ FBS) (minimum concentration with neuroprotective effect)
[6] = Chelating ability with Zn (II) (absorbance spectra); format: physicochemical
Procedure: FIG. 8 represents the absorbance spectra of the complex Zn(II)-Compound 4. Concentration 200 μM, PBS 10 mM, pH 7.4.
Concentration 180 μM, PBS 10 mM, pH 7.4.
Concentration 100 μM, PBS 10 mM, pH 7.4.
Concentration 20 μM, PBS 10 mM, pH 7.4. […]

[7] = system: SH-SY5Y human neuroblastoma cells; test: Protection against 6-OHDA-induced cell death, condition B (no fetal bovine serum); format: cell-based; conditions: preincubated 1 hour, 6-OHDA 50 μM 24 hours, read-out: Protect. 6-OHDA (−FBS) (minimum concentration with neuroprotective effect)
[8] = Fe (II) complex, pH 7.4, expecting time Immediate
[9] = intravenous route, group 1-2 mg/kg (Compound 4, 8: 1.00; 7: 1.20; 10: 2.00 mg/Kg), brain
[10] = intravenous route, group 1-2 mg/kg (Compound 4, 8: 1.00; 7: 1.20; 10: 2.00 mg/Kg), plasma
[11] = Zn (II) complex, pH 7.4, expecting time 24 h (4, 7) or 4 h (8, 10)

- Dissociation grade [1, 8]: 0.019 ± 0.004
- Stoichiometry [1, 8]: 1:3 (ML3)
- ε approx. [1, 8]: ~6700 L/mol/cm
- Ability to complex Fe (II) (spectrum of mixture vs sum of individual spectra) ([1]; PBS 10 mM, pH 7.4 or 8, FIGS. 2-5): able to complex the Fe (II)
- Ability to complex Fe (III) (change in absorbance spectra) [2]: no change in the absorbance spectra
- Dissociation grade ([3]; Cu (II) complex): 3.8 ± 0.4
- Stoichiometry ([3]; Cu (II) complex): 1:1 (ML)
- ε approx. ([3]; Cu (II) complex): ~400 L/mol/cm
- Kp ([4]; iv, brain AUC relative to plasma AUC, intravenous route, group 1-2 mg/kg, read-out: % AUC): 0.229
- Kp ([4]; iv, brain Cmax relative to plasma Cmax, intravenous route, group 1-2 mg/kg, read-out: % Cmax): 0.137
- Kp ([4]; po, 20 mg/kg, brain AUC relative to plasma AUC, 20 mg/kg oral route, read-out: % AUC): 0.119
- Kp ([4]; po, 20 mg/kg, brain Cmax relative to plasma Cmax, 20 mg/kg oral route, read-out: % Cmax): 0.0876
- Kp ([4]; po, 200 mg/kg, brain AUC relative to plasma AUC, 200 mg/kg oral route, read-out: % AUC): 8.32
- Kp ([4]; po, 200 mg/kg, brain Cmax relative to plasma Cmax, 200 mg/kg oral route, read-out: % Cmax): 1.96
- bioavailability ([4]; plasma, 20 mg/kg oral route (low dose)): 12.5%
- bioavailability ([4]; plasma, 200 mg/kg oral route (high dose)): 77.6%
- Tmax ([4]; 20 mg/kg oral route, brain): 1 h
- AUC ([4]; 20 mg/kg oral route, plasma): 184 ng·h/mL
- Cmax ([4]; 20 mg/kg oral route, plasma): 149 ng/mL
- Tmax ([4]; 20 mg/kg oral route, plasma): 1 h
- half-life ([4]; 20 mg/kg oral route, plasma): 4 h
- Tmax ([4]; 200 mg/kg oral route, brain): 2 h
- AUC ([4]; 200 mg/kg oral route, plasma): 11500 ng·h/mL
- Cmax ([4]; 200 mg/kg oral route, plasma): 3950 ng/mL
- Tmax ([4]; 200 mg/kg oral route, plasma): 0.5 h
- half-life ([4]; 200 mg/kg oral route, plasma): 3.79 h
- Tmax [4, 9]: 0.08 h
- half-life [4, 9]: 2.6 h
- AUC [4, 10]: 148 ng·h/mL
- Cmax [4, 10]: 136 ng/mL
- Tmax [4, 10]: 0.08 h
- half-life [4, 10]: 8.1 h
- Cmax Brain ([4]; 20 mg/kg oral route, brain): 13.07 ng/g
- Cmax Brain ([4]; 200 mg/kg oral route, brain): 7751.80 ng/g
- Cmax Brain [4, 9]: 18.7 ng/g
- Ability to complex Zn(II) ([6]; PBS 10 mM, pH 7.4, FIGS. 8-11): complexed with Zn(II) to an extent
- Dissociation grade [6, 11]: 3.7 ± 0.6
- Stoichiometry [6, 11]: 1:2 (ML2)
- ε approx. [6, 11]: ~9400 L/mol/cm
Compound: CCN(CC)CCOc1cc(/C=N/O)nc2c1ccc1cccnc12 [Compound 10, 4-(2-Diethylamino-ethoxy)-[1,10]phenanthroline-2-carbaldehyde oxime]
- Formation constant ([1]; Fe (II) complex 1:3 (ML3), pH 7.4, expecting time Immediate): 5.0 ± 1.0 · 10^17
- Formation constant ([3]; Cu (II) complex 1:1 (ML)): 4.4 ± 0.6 · 10^6 l/mol
- minimal effective concentration [5]: 0.05 µM
- Formation constant ([6]; Zn (II) complex 1:2 (ML2), pH 7.4, expecting time 24 h (7) or 4 h (8, 10)): 1.7 ± 0.4 · 10^13 l^2/mol^2
- minimal effective concentration [7]: 0.5 µM
